Earlier results in patent US10478472B2, “Combination of tolerogenic peptides and TFG-B for use in the induction and maintenance of oral tolerance in young mammals” (NESTEC S.A., priority 2015, dated 2019).

Conditions: identified as part of a longer peptide sequence in WO2000/42863

| Substance | inducers of oral tolerance |
| --- | --- |
| EVDDEALEK (listed as Bos taurus) [SEQ ID No. 8, BLG peptide, position 143-151] | inducers of oral tolerance |
| IDALNENK (listed as Bos taurus) [SEQ ID No. 6, BLG peptide, position 100-107] | inducers of oral tolerance |
| VLDTDY (listed as Bos taurus) [SEQ ID No. 7, BLG peptide, position 110-115] | inducers of oral tolerance |
